# Values quoted from earlier work, collected in patent US8178516B2, “Compositions and method for treatment of chronic inflammatory diseases” (Sylvan Labs, LLC, priority 1992, dated 2012).
# Experiments:
# myocardial glutathione = details: subsequent to experimental ischemia and reperfusion
# [1] = system: plasma cysteine, plasma glutathione and red blood cell glutathione; details: in vivo
smiles,measurement,setting,value
CC(=O)N[C@@H](CS)C(=O)O [N-acetylcysteine],increase in myocardial glutathione,myocardial glutathione,100 fold
same,"levels of plasma cysteine, plasma glutathione and red blood cell glutathione",[1],increase
